Test results as given in patent publication US7074807B2, “Compositions and methods for inducing cell death” (Georgetown University, priority 1998, dated 2006).

How the values were obtained:
Type in all cases: cell-based, human
[1] = system: PC-3 cells; assay: Annexin V apoptosis in prostate cancer cells (5% BCS); conditions: 2.5 mM, 24 hr
Method: (§1) Cells were grown overnight in medium containing 10% BCS in T-25 flasks, switched to medium containing 5% BCS and treated with tempo. Following treatment, cells were washed, trypsinized, and resuspended in […] of 1× binding buffer as described before. […] (9A1–9A3): Cytograms of untreated (9A1); 0.1% ethanol-treated (24 hr) (9A2); and tempo-treated DU145 cells (2.5 mM, 24 hr) (9A3). […] (9B1–9B2), (9C1–9C2), (9D1–9D2): apoptosis (9B1, 9C1, 9D1) and necrosis (9B2, 9C2, […]) in cells treated with tempo (B, 2.5 mM; C, 24 hr; D, doses and times as indicated). Values shown are mean q S.D. of triplicate determination per point in each treatment category.
(§2) To investigate tempo's effect on prostate cancer cells, human androgen-independent prostate cancer-derived cell lines (DU145 and PC3) were grown to near confluence in 75 cm^2-tissue flasks in Improved Minimum Essential Medium (IMEM) (Cellgro) containing 10% bovine calf serum (BCS) supplemented with 2 mM L-glutamine and 200 IU/ml penicillin and streptomycin mixture in a humidified atmosphere of 5% CO2:95% air at 37° C. Human androgen-dependent prostate cancer-derived cell line (LNCaP) was cultured in RPMI 1640 medium containing 10% BCS and 2 mM L-glutamine. Cells were trypsinized and seeded in equal numbers overnight in 150 mm^2 tissue culture dishes (two dishes per flask) or 25 cm^2 flasks (1×10^6 cells per flask). Cells were treated in medium containing 5% BCS with desired concentration of tempo for various times. Tempo was dissolved in ethanol (0.1%) before use. Control cultures were treated with ethanol (0.1%) for various times. Following treatment, cells were washed 3 times with PBS. […] In LNCaP cells, a relatively higher level of apoptosis was observed (1 mM tempo, 24 hr, approximately 12-fold; 5 mM, 4 hr, approximately 15-fold) (FIGS. 9A1, 9A2, 9A3, 9B1, 9B2, 9C1, 9C2, 9D1, 9D2).

[2] = system: LNCaP cells; assay: as above
Method: as §1, §2

[3] = system: DU145 cells; assay: as above; conditions: 2.5 mM, 24 hr
Method: as §1, §2

[4] = system: LNCaP cells; assay: Light and transmission electron microscopy of LNCaP cells
Method: LNCaP cells ([…]) were seeded in 25 cm2 tissue culture flasks in RPMI medium containing 10% BCS overnight, followed by change to RPMI medium containing 5% BCS stimulation with 0.1% ethanol (control, 11A1, 11B1) or tempo (2.5 mM, 11A2, 11B2) for indicated times.
12A1, untreated, 4,000×; 12A2, a portion of the cell shown in 12A1, 20,000×; 12B1, 0.1% ethanol, 24 hr, 4,000×; 12B2, a portion of the cell shown in 12B1, 20,000×; 12C1, 5 mM tempo, 24 hr, 4,000×; 12C2, a portion of the cell shown in 12C1, […]; 12D, 5 mM tempo, 24 hr, a portion of another cell, 20,000×. M, mitrochondria; G, golgi apparatus; RER, rough endoplasmic reticulum; Cy, cytoplasm; N, nucleus; Arrow in panel C2 indicates swelling in the nuclear membrane.
LNCaP cells were treated with tempo as described in legend to FIG. 2. Following treatment, monolayer cells were washed three times with PBS, and fixed in 2.5% glutaraldehyde/3% paraformaldehyde in PBS. After fixation, the cell monolayer was washed in PBS. The cells were collected by gentle scraping using a rubber policeman, and centrifuged. The pellet was embedded in 1% agarose to facilitate handling. Post-fixation was performed in 1% osmium tetroxide in distilled water for 1 hr, followed by washing three times in distilled water, enbloc staining with 2% uranyl acetate for 30 min in dark, and washing three times in distilled water. […]

[5] = system: SAPK/JNK; assay: SAPK/JNK1 activity (GST-cJun phosphorylation); conditions: 10 mM, 2 h, vs tempol or 1% ethanol control
Method: FIGS. 5A, 5B, 5C. Tempo stimulates tyrosine phosphorylation and activity of SAPK. […] 5A. WCLs (1 mg) were immunoprecipitated with agarose-conjugated anti-SAPK antibody, followed by immunoblotting with anti-PY MAb. 5B. In other independent experiments, anti-SAPK immunoprecipitates were first probed with anti-PY MAb (top), and the blot was then reprobed with anti-SAPK antibody (bottom). 5C. […] WCLs were immunoprecipitated with anti-JNK1 antibody, and the JNK1 activity in immunoprecipitates was measured using GST-cJun (˜41 kDa) as a substrate. UT, untreated cells grown overnight in serum-free medium; CONT/Control, cells grown in serum-free medium overnight, and treated with 1% ethanol for 2 h.
ERK and SAPK/JNK Activities—Whole cell lysates prepared as described above were immunoprecipitated (1 mg) with an agarose conjugated anti-ERK1 antibody or an agarose conjugated anti-JNK1 antibody for 2 h at 4° C. with constant agitation. The immune-complexes were washed 3 times in lysis buffer and once in KBB as mentioned earlier. ERK or JNK activity assay was carried out according to manufacturer's procedures (UBI). […] The radioactive filters were washed and counted as described above. […] The radiolabeled GST-cJun fusion protein was detected by autoradiography.

## CC1(C)CCCC(C)(C)N1[O] [tempo, 2,2,6,6-tetramethylpiperidine-N-oxyl]
[1]
  increase in the number of apoptotic cells: ~6.7 fold
[2]; 1 mM, 24 hr
  level of apoptosis (increase): approximately 12 fold
[2]; 5 mM, 4 hr
  level of apoptosis (increase): approximately 15 fold
[3]
  increase in the number of apoptotic cells: approximately 3.4 fold
[4]; 2.5 mM
  cell morphology at the light microscopic level: distinct change in cell morphology from spindle shaped, highly refractile appearance to a more flattened appearance
[4]; electron microscopy, 5 mM, 24 hr
  cells with pronounced vacuolation throughout the cytoplasm: more than 90%
[5]
  increase in the phosphorylated GST-cJun fusion protein: 3–7 fold
